{"source": "patent US20260285847A1", "about": "“SYMMETRIC AMINOINDOLE-LINKED TRIAZINE FOR A DUAL EFFECT ON ALPHA-SYNUCLEIN AND TAU ISOFORM 2N4R FIBRILLIZATION” (Purdue Research Foundation, priority 2023, published 2026)", "key": {"tau isoform 2N4R [1]": {"target": "T1, tau isoform 2N4R (Homo sapiens, UniProt P10636)", "T1 construct": "made in house; host or cells: E. coli BL21(DE3)", "T1 sequence (P10636 1-441 isoform P10636-8)": "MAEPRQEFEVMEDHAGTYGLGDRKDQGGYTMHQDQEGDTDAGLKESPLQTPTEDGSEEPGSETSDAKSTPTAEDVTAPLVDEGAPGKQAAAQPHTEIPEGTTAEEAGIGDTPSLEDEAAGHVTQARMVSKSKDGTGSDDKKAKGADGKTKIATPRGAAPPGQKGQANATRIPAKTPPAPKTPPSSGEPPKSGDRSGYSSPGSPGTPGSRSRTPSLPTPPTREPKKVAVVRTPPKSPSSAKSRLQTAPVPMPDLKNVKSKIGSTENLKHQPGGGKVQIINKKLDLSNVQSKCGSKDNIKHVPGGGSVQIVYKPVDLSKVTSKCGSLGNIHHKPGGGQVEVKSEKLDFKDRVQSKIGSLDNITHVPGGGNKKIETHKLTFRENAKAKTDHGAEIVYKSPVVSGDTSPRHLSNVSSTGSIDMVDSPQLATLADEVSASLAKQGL", "assay": "ThT fluorescence assay of tau isoform 2N4R fibril formation", "assay_type": "biochemical", "settings": "compound 100 μM, tau 2N4R 6 μM", "description": "(§1) Chemical and peptide source. DMSO and thioflavin-T (ThT) were purchased from Alfa Aesar (Ward Hill, MA). Procuration of recombinant α-syn was from rPeptide (WatKinsville, GA). The recombinant p-tau isoform 1N4R was prepared as published previously.^31, 36 Concerning the preparation of tau 2N4R, bacterial expression plasmid consisting of the vector pRK172 carrying a cDNA encoding the human Tau 2N4R isoform was a kind gift of Dr. David Eliezer (Weill Cornell Medicine). For protein expression, E. coli BL21(DE3) cells were transformed with the plasmid and grown in LB media supplemented with ampicillin (100 μg/mL). Protein over-expression was induced by the addition of 1 mM IPTG for 4 h at 37° C., and cells were pelleted by centrifugation at 6,000 g for 15 min at 4° C. The cells were resuspended in lysis buffer (20 mM MES, 400 mM NaCl, 0.2 mM MgCl2, 1 mM EGTA, protease inhibitor cocktail (P8340, Sigma Aldrich), 0.25 mg/mL lysozyme, and 1 μg/mL DNase I, pH 6.8) and lysed by a French press cell disruptor at 4° C., and the lysate was boiled for 20 min. Denatured proteins were pelleted by centrifugation at 30,000 g for 30 min at 4° C., and the supernatant was dialyzed overnight against cation exchange buffer (20 mM MES, 50 mM NaCl, 1 mM MgCl2, 1 mM EGTA, 2 mM DTT, 0.1 mM PMSF, pH 6.8). The dialysate was loaded onto a HiPrep SP HP column, and proteins were eluted with a linear gradient ranging from 50 mM to 1 M NaCl. Fractions containing tau isoform 2N4R were pooled, and the resulting protein solution was dialyzed against PBS (pH 7.4) and stored at −80° C."}, "tau isoform 2N4R [2]": {"target": "T1, tau isoform 2N4R", "assay": "PICUP cross-linking assay of tau oligomer formation", "assay_type": "biochemical", "description": "as §1\nPICUP is a technique in which oligomer formation is induced by cross-linking. To induce oligomerization by cross-linking, α-syn (from Rpeptide, LLC) and tau isoform 2N4R were diluted in 10 mM phosphate buffer (pH 7.4) to reach a final concentration of 10 μM. Different compounds were added to the protein solution at a final concentration of 50 μM, resulting in a molar ratio of 1:5. […]"}, "α-syn": {"target": "T2, α-syn (Homo sapiens, UniProt P37840)", "T2 construct": "purchased rPeptide", "assay": "Transmission electron microscopy (TEM) of α-syn fibrils", "assay_type": "biochemical", "settings": "protein 60 μM, compound 600 μM (1:10), 24 hours at 37° C.", "description": "To confirm the general anti-fibrillar effect of compound 10, transmission electron microscopy (TEM) was used as an orthogonal assay. After incubating recombinant proteins (at 60 μM) with 600 μM compound 10 for 24 hours at 37° C., TEM was utilized to detect fibril formation.^32 A volume of 10 μL was applied on a 400-mesh Formvar-carbon-coated copper grid (Electron Microscopy Sciences, Hatfield, PA). The grids were incubated for 1 minute and washed three times with distilled water. They were carefully air-dried and incubated for 1 minute in a fresh solution of 1% uranyl acetate. Samples were air-dried and observed using a transmission microscope. Visualization of the grids was performed with transmission electron microscopy (JEOL 1400 Flash, Japan). Acquisition of pictures was performed with the following settings: accelerating voltage of 100 kV and magnification of 40k."}, "tau isoform 2N4R [3]": {"target": "T1, tau isoform 2N4R", "assay": "TEM of tau isoform 2N4R fibrils", "assay_type": "biochemical", "settings": "protein 60 μM, compound 600 μM (1:10), 24 hours at 37° C.", "description": "as §1\nTo confirm the general anti-fibrillar effect of compound 10, transmission electron microscopy (TEM) was used as an orthogonal assay. After incubating recombinant proteins (at 60 μM) with 600 μM compound 10 for 24 hours at 37° C., TEM was utilized to detect fibril formation.^32 A volume of 10 μL was applied on a 400-mesh Formvar-carbon-coated copper grid (Electron Microscopy Sciences, Hatfield, PA). The grids were incubated for 1 minute and washed three times with distilled water. […]"}, "[4]": {"tested_on": "Aβ-plaques isolated from AD brains", "assay": "Ex vivo disaggregation of Aβ-plaques (TEM)", "parameters": "species or system human", "settings": "compound 50 μM, 120 hours at 37° C., vs 1.5% DMSO", "from_the_text": "(§2) Amyloid-β plaques were purified from postmortem human AD brains obtained from patients diagnosed with advanced Alzheimer's (Braak stage V or VI) (Tissue Biobank at Case Western Reserve University-Cleveland Clinic) using ultracentrifugation with a sucrose gradient and cell sorting, as previously published.^38-39 Purified amyloid-β plaques were examined with polarized and fluorescence microscopy (Congo Red and Thioflavin-S staining) and scanning electron microscopy. Each aliquot of amyloid-β plaques was solubilized with 60 μL of 10 mM PBS buffer (pH 7.4). One extraction consisted of 0.28 mg/ml of protein, as measured with nanodrop (A260/280 nm). A volume of 20 μL of extraction was incubated with 1.5% DMSO (control) or compound 10 (50 μM) for 120 hours at 37° C. prior to visualization by transmission electron microscopy.\n(§3) The protein quantification of the plaques isolated from AD brains were measured with nanodrop. […] Compound 10 was tested at 50 μM based on the protein levels and results obtained with PICUP experiments (FIG. 7). AP-plaque samples were incubated with 1.5% DMSO (control) or compound 10 (50 μM) in 10 mM PBS buffer (pH 7.4) for 120 hours at 37° C. prior to visualization by transmission electron microscopy. During the visualization of the grids, several paired helical filaments were observed."}, "[5]": {"tested_on": "paired helical filaments isolated from AD brains", "assay": "Ex vivo disaggregation of paired helical filaments (TEM)", "parameters": "species or system human", "settings": "compound 50 μM, 120 hours at 37° C., vs 1.5% DMSO", "from_the_text": "as §2, §3"}, "[6]": {"assay": "Half-life and brain penetration in mice", "assay_type": "in vivo", "settings": "CD1 mice, 1 mg/kg", "from_the_text": "The concentration ration plasma:brain is near to one which is adequate."}}, "note": "Entries after “also recorded” stand apart in the source; their conditions may differ."}
{"smiles": "c1cc(Nc2ncnc(Nc3cccc4[nH]ccc34)n2)c2cc[nH]c2c1", "note": "[Compound 10, N2,N4-bis(1H-indol-4-yl)-1,3,5-triazine-2,4-diamine]", "values": [{"measurement": "elongation rate of tau isoform 2N4R fibrillization", "setting": "tau isoform 2N4R [1]", "value": "slower elongation rate"}, {"measurement": "tau isoform 2N4R fibrillization (in words)", "setting": "tau isoform 2N4R [1]; heparin 1.5 μM", "value": "markedly inhibited tau isoform 2N4R fibrillization"}, {"measurement": "tau oligomer formation (PICUP, in words)", "setting": "tau isoform 2N4R [2]; compound 50 μM, high molecular weight oligomers around 190 kDa", "value": "inhibited both α-syn and tau oligomer formation"}, {"measurement": "tau isoform 2N4R oligomerization at different concentrations (PICUP)", "setting": "tau isoform 2N4R [2]; compound 3.125 to 50 μM", "value": "effective in reducing oligomerization of α-syn and tau isoform 2N4R in a dose-dependent manner"}, {"measurement": "α-syn fibril ultrastructure (TEM)", "setting": "α-syn", "value": "a range of shorter fibrils to amorphous protein; also recorded: rare short fibrils"}, {"measurement": "tau isoform 2N4R fibril ultrastructure (TEM)", "setting": "tau isoform 2N4R [3]", "value": "needle-shaped short fibrils; also recorded: very short needle shaped fibrils admixed with debris"}, {"measurement": "disaggregation of Aβ-plaques (TEM, in words)", "setting": "[4]", "value": "smaller AP-plaques; also recorded: disaggregated human Aβ plaques and NFTs"}, {"measurement": "disaggregation of paired helical filaments (TEM, in words)", "setting": "[5]", "value": "shorter paired helical filaments; also recorded: disaggregated human Aβ plaques and NFTs"}, {"measurement": "concentration ratio plasma:brain", "setting": "[6]", "value": "near to one"}, {"measurement": "crossing of the blood brain barrier", "setting": "[6]", "value": "crossed the blood brain barrier"}, {"measurement": "half-life", "setting": "[6]", "value": "short half-life"}]}
